# ± gives the standard deviation of the averaged measurements.
# How the values were obtained:
# Test in all cases: relative viability vs DMSO control (72 h) (fraction); higher = more viable cells
# [1] = system: SW1353
# How it was run: (§1)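 Sarcoma cell lines in 384-well plates, seeded to reach 80–90% confluence, were given compound after 24 h and kept 72 h at 37 °C, 5% CO2, with 0.1% DMSO vehicle and a 5 µM positive control. Relative viability came from ATPLite as percent growth, averaged over up to triplicate wells. On the rescaled values, 1 equals full and 0 equals none.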
# [2] = system: RD-ES
# How it was run: as §1
# [3] = system: SW684
# How it was run: as §1
# [4] = system: KHOS-240S
# How it was run: as §1
# [5] = system: A204
# How it was run: as §1
# [6] = system: SW872
# How it was run: as §1
# [7] = system: KHOS-NP
# How it was run: as §1
# [8] = system: SW982
# How it was run: as §1
# [9] = system: G401
# How it was run: as §1
# [10] = system: SYO-1
# How it was run: as §1
# [11] = system: HT1080
# How it was run: as §1
# [12] = system: SK-ES-1
# How it was run: as §1
structure (smiles),measurement,setting,value
CCN(CC)CCNC(=O)c1c(C)[nH]c(/C=C2\C(=O)Nc3ccc(F)cc32)c1C [Sunitinib],relative viability,[1]; 0.00017 µM,0.978 ± 0.023
same,relative viability,[1]; 0.00051 µM,0.994 ± 0.059
same,relative viability,[1]; 0.00152 µM,0.968 ± 0.067
same,relative viability,[1]; 0.00457 µM,0.984 ± 0.031
same,relative viability,[1]; 0.01372 µM,0.951 ± 0.059
same,relative viability,[1]; 0.04115 µM,0.972 ± 0.03
same,relative viability,[1]; 0.1235 µM,0.981 ± 0.03
same,relative viability,[1]; 0.3704 µM,1 ± 0.017
same,relative viability,[1]; 1.111 µM,0.988 ± 0.075
same,relative viability,[1]; 3.333 µM,0.017 ± 0.0068
same,relative viability,[1]; 10 µM,0.0071 ± 0.0002
same,relative viability,[2]; 0.00017 µM,0.955 ± 0.057
same,relative viability,[2]; 0.00051 µM,0.952 ± 0.049
same,relative viability,[2]; 0.00152 µM,0.968 ± 0.022
same,relative viability,[2]; 0.00457 µM,0.97 ± 0.048
same,relative viability,[2]; 0.01372 µM,0.964 ± 0.049
same,relative viability,[2]; 0.04115 µM,0.958 ± 0.041
same,relative viability,[2]; 0.1235 µM,0.895 ± 0.017
same,relative viability,[2]; 0.3704 µM,0.752 ± 0.01
same,relative viability,[2]; 1.111 µM,0.276 ± 0.013
same,relative viability,[2]; 3.333 µM,0.0097 ± 0.00087
same,relative viability,[2]; 10 µM,0.00923 ± 0.00055
same,relative viability,[3]; 0.00017 µM,1.17 ± 0.031
same,relative viability,[3]; 0.00051 µM,1.16 ± 0.023
same,relative viability,[3]; 0.00152 µM,1.18 ± 0.019
same,relative viability,[3]; 0.00457 µM,1.15 ± 0.035
same,relative viability,[3]; 0.01372 µM,1.144 ± 0.0071
same,relative viability,[3]; 0.04115 µM,1.17 ± 0.063
same,relative viability,[3]; 0.1235 µM,1.181 ± 0.0061
same,relative viability,[3]; 0.3704 µM,1.07 ± 0.04
same,relative viability,[3]; 1.111 µM,0.871 ± 0.019
same,relative viability,[3]; 3.333 µM,0.609 ± 0.029
same,relative viability,[3]; 10 µM,0.001 ± 0.0098
same,relative viability,[4]; 0.00017 µM,1.06 ± 0.046
same,relative viability,[4]; 0.00051 µM,1.06 ± 0.04
same,relative viability,[4]; 0.00152 µM,1.05 ± 0.058
same,relative viability,[4]; 0.00457 µM,1.05 ± 0.056
same,relative viability,[4]; 0.01372 µM,1.04 ± 0.027
same,relative viability,[4]; 0.04115 µM,1.03 ± 0.045
same,relative viability,[4]; 0.1235 µM,0.958 ± 0.035
same,relative viability,[4]; 0.3704 µM,0.875 ± 0.038
same,relative viability,[4]; 1.111 µM,0.655 ± 0.038
same,relative viability,[4]; 3.333 µM,0.204 ± 0.015
same,relative viability,[4]; 10 µM,0.0104 ± 0.0027
same,relative viability,[5]; 0.00017 µM,1.06 ± 0.052
same,relative viability,[5]; 0.00051 µM,1.03 ± 0.073
same,relative viability,[5]; 0.00152 µM,1.01 ± 0.043
same,relative viability,[5]; 0.00457 µM,0.96 ± 0.035
same,relative viability,[5]; 0.01372 µM,0.795 ± 0.026
same,relative viability,[5]; 0.04115 µM,0.516 ± 0.043
same,relative viability,[5]; 0.1235 µM,0.425 ± 0.046
same,relative viability,[5]; 0.3704 µM,0.363 ± 0.031
same,relative viability,[5]; 1.111 µM,0.318 ± 0.017
same,relative viability,[5]; 3.333 µM,0.206 ± 0.01
same,relative viability,[5]; 10 µM,0.00297 ± 0.0012
same,relative viability,[6]; 0.00017 µM,1.04 ± 0.051
same,relative viability,[6]; 0.00051 µM,1.05 ± 0.048
same,relative viability,[6]; 0.00152 µM,1.03 ± 0.029
same,relative viability,[6]; 0.00457 µM,1.03 ± 0.04
same,relative viability,[6]; 0.01372 µM,1.04 ± 0.097
same,relative viability,[6]; 0.04115 µM,1.02 ± 0.1
same,relative viability,[6]; 0.1235 µM,0.993 ± 0.11
same,relative viability,[6]; 0.3704 µM,0.81 ± 0.038
same,relative viability,[6]; 1.111 µM,0.587 ± 0.033
same,relative viability,[6]; 3.333 µM,0.416 ± 0.035
same,relative viability,[6]; 10 µM,-0.00493 ± 0.0014
same,relative viability,[7]; 0.00017 µM,1.04 ± 0.024
same,relative viability,[7]; 0.00051 µM,1.06 ± 0.018
same,relative viability,[7]; 0.00152 µM,1.05 ± 0.014
same,relative viability,[7]; 0.00457 µM,1.05 ± 0.022
same,relative viability,[7]; 0.01372 µM,1.06 ± 0.017
same,relative viability,[7]; 0.04115 µM,1.047 ± 0.0075
same,relative viability,[7]; 0.1235 µM,1.069 ± 0.0048
same,relative viability,[7]; 0.3704 µM,1.065 ± 0.0084
same,relative viability,[7]; 1.111 µM,0.973 ± 0.05
same,relative viability,[7]; 3.333 µM,0.381 ± 0.062
same,relative viability,[7]; 10 µM,0.0257 ± 0.0036
same,relative viability,[8]; 0.00017 µM,1.06 ± 0.054
same,relative viability,[8]; 0.00051 µM,1.07 ± 0.047
same,relative viability,[8]; 0.00152 µM,1.07 ± 0.062
same,relative viability,[8]; 0.00457 µM,1.05 ± 0.027
same,relative viability,[8]; 0.01372 µM,1.05 ± 0.063
same,relative viability,[8]; 0.04115 µM,1.07 ± 0.021
same,relative viability,[8]; 0.1235 µM,1.02 ± 0.047
same,relative viability,[8]; 0.3704 µM,0.716 ± 0.0084
same,relative viability,[8]; 1.111 µM,0.413 ± 0.0048
same,relative viability,[8]; 3.333 µM,0.0113 ± 0.00078
same,relative viability,[8]; 10 µM,0.00423 ± 0.00012
same,relative viability,[9]; 0.00017 µM,1.01 ± 0.0098
same,relative viability,[9]; 0.00051 µM,0.984 ± 0.014
same,relative viability,[9]; 0.00152 µM,0.982 ± 0.013
same,relative viability,[9]; 0.00457 µM,0.99 ± 0.017
same,relative viability,[9]; 0.01372 µM,0.999 ± 0.023
same,relative viability,[9]; 0.04115 µM,0.996 ± 0.01
same,relative viability,[9]; 0.1235 µM,0.959 ± 0.0094
same,relative viability,[9]; 0.3704 µM,0.98 ± 0.068
same,relative viability,[9]; 1.111 µM,0.892 ± 0.032
same,relative viability,[9]; 3.333 µM,0.628 ± 0.036
same,relative viability,[9]; 10 µM,0.00473 ± 0.00025
same,relative viability,[10]; 0.00017 µM,0.952 ± 0.013
same,relative viability,[10]; 0.00051 µM,0.9234 ± 0.0033
same,relative viability,[10]; 0.00152 µM,0.886 ± 0.025
same,relative viability,[10]; 0.00457 µM,0.813 ± 0.034
same,relative viability,[10]; 0.01372 µM,0.706 ± 0.069
same,relative viability,[10]; 0.04115 µM,0.665 ± 0.057
same,relative viability,[10]; 0.1235 µM,0.601 ± 0.038
same,relative viability,[10]; 0.3704 µM,0.494 ± 0.077
same,relative viability,[10]; 1.111 µM,0.406 ± 0.079
same,relative viability,[10]; 3.333 µM,-0.00767 ± 0.0015
same,relative viability,[10]; 10 µM,-0.00903 ± 0.0015
same,relative viability,[11]; 0.00017 µM,1.13 ± 0.048
same,relative viability,[11]; 0.00051 µM,1.051 ± 0.0096
same,relative viability,[11]; 0.00152 µM,1.1 ± 0.03
same,relative viability,[11]; 0.00457 µM,1.06 ± 0.027
same,relative viability,[11]; 0.01372 µM,1.08 ± 0.025
same,relative viability,[11]; 0.04115 µM,1.07 ± 0.049
same,relative viability,[11]; 0.1235 µM,1.11 ± 0.027
same,relative viability,[11]; 0.3704 µM,1.14 ± 0.035
same,relative viability,[11]; 1.111 µM,1.06 ± 0.064
same,relative viability,[11]; 3.333 µM,0.113 ± 0.014
same,relative viability,[11]; 10 µM,0.00267 ± 0.00021
same,relative viability,[12]; 0.00017 µM,0.997 ± 0.022
same,relative viability,[12]; 0.00051 µM,0.996 ± 0.05
same,relative viability,[12]; 0.00152 µM,1.08 ± 0.037
same,relative viability,[12]; 0.00457 µM,1.04 ± 0.024
same,relative viability,[12]; 0.01372 µM,1.02 ± 0.021
same,relative viability,[12]; 0.04115 µM,0.97 ± 0.014
same,relative viability,[12]; 0.1235 µM,0.931 ± 0.019
same,relative viability,[12]; 0.3704 µM,0.578 ± 0.03
same,relative viability,[12]; 1.111 µM,0.215 ± 0.0073
same,relative viability,[12]; 3.333 µM,0.018 ± 0.0024
same,relative viability,[12]; 10 µM,0.0034 ± 0.00035

# From the supplement of paper PMC10883282
